According to patent US20200386744A1, “NOVEL SCREENING METHOD FOR TGF-BETA INHIBITOR” (The Doshisha, priority 2017, published 2020):
Counter-ions that a name gives are not always drawn. Like-named read-outs stand apart in the source and are kept apart here.

Tests used:
[1] = test system: immortalized Fuchs' endothelial corneal dystrophy cells (iFECD); test: Caspase 3/7 activity (Caspase-Glo 3/7 Assay) in iFECD under TGF-β2 stimulation, primary and secondary screening; format: cell-based, human; settings: for activity at 10 µM: Homo sapiens
Experimental: 7×10^3 immortalized Fuchs' endothelial corneal dystrophy cells were seeded on a 96-well plate and were cultured for 24 hours under the condition of 5% CO2 at 37° C. Dulbecco's Modified Eagle Medium (DMEM) (nacalai tesque, 26252-94)+10% FBS (Biological Industries/04-001-1A)+1% penicillin-streptomycin (nacalai tesque, 26252-94) was used as the medium. Next, TGF-β2 (manufacturer: R&D Systems, Inc., distributor: Wako Pure Chemical Industries, Ltd./manufacturer codes 302-B2-002, 302-B2-010, distributor codes: 553-62881, 559-62883) (5 ng/mL) alone, or both TGF-β2 (5 ng/mL) and each agent of SCREEN-WELL® FDA Approved Drug Library V2, Japan version (10 μM) were added. After 28 hours under the condition of 5% CO2 at 37° C., cell morphology was observed using a phase difference microscope. Caspase 3/7 activity was then measured using Caspase-Glo 3/7 Assay (Promega, #G8091). DMEM+2% FBS+1% P/S was used as the medium. Caspase 3/7 activity and cell viability in this example were measured using Veritas™ Microplate Luminometer. Such a device enables many samples to be simultaneously measured.
The control group was supplemented with a solvent of each reagent, i.e., DMSO (Dimethyl Sulfoxide, Sterile-filtered) (nacalai tesque, 13408-64). Further, Z-VD-FMK (isomer mixture) (Wako Pure Chemical Industries, Ltd./262-02061) (10 μM), which is a caspase inhibitor, was used as the positive control. In the primary screening, measurement of Caspase 3/7 activity was carried out with n=2. […] Caspase activity was measured after being cultured in Dulbecco's Modified Eagle Medium (DMEM)+2% fetal bovine serum (FBS)+1% penicillin/streptomycin (P/S) for 28 hours.
Measurement was carried out with n=2 as the primary screening and a TGF-β2 (5 ng/mL) supplemented group was set as 100%. […] (1) and (2) of the control group, TGF-β2 (5 ng/mL) supplemented group, TGF-β2 (5 ng/mL)+Z-VD-FMK supplemented group (10 μM) are n=5 in total.
Evaluation of Caspase 3/7 activity was carried out with n=5 in the secondary screening.

[2] = test system: immortalized Fuchs' endothelial corneal dystrophy cells (iFECD); test: Cell viability (CellTiter-Glo Luminescent Cell Viability Assay) in iFECD, secondary screening; format: cell-based, human; settings: agent 10 μM, absence of TGF-β; for Secondary screening Viable cell number (%): 28 hours, n=2, vs candidate compound non-contacted group
Experimental: In one embodiment, step (b) comprises measurement of cell viability. […] The cell viability is measured in the absence of TGF-β. […] The threshold value of the cell viability may be about 80%, about 85%, about 90%, about 95%, about 98%, about 99%, about 100%. […] Thus, a drug can be accurately selected by measuring cell number in addition to measuring caspase activity. Although the compounds shown in Table 2 appeared to be suppressing caspase activity, the compounds had strong toxicity, wherein cell viability went below 90%, and were thereby removed in the secondary screening.
Cell viability is calculated as an indicator of toxicity with n=2 in CellTiter-Glo® Luminescent Cell Viability Assay (Promega catalogue number: G7570). The cell viability was measured after culturing the cells in Dulbecco's Modified Eagle Medium (DMEM)+2% fetal bovine serum (FBS)+1% penicillin/streptomycin (P/S) for 28 hours. The cell viability was measured in the absence of TGF-β. When the cell viability was below 90%, the cells were removed from ranking.

[3] = 28 h, secondary screening Caspase 3/7 activity divided by cell viability, read-out: Caspase 3/7 activity/Viable cell number (%)
[4] = TGF-β2 5 ng/mL + agent 10 μM, 28 hours, n=2, TGF-β2 supplemented group set as 100%, read-out: Primary screening Caspase 3/7 activity (%)
[5] = TGF-β2 5 ng/mL + agent 10 μM, 28 hours, n=5, vs candidate compound non-contacted group, read-out: Secondary screening Caspase 3/7 activity (%)

SMILES	activity at 10 µM [1, 3] [%]	activity at 10 µM [1, 4] [%]	activity at 10 µM [1, 5] [%]	Cell viability class mark (before Viable cell number) [2]	Secondary screening Viable cell number (%) [2] [%]	Primary screening Caspase 3/7 activity (%) ([1]; TGF-β2 5 ng/mL + agent 10 μM, 28 hours, n=2, TGF-β2 supplemented group set as 100%)	Secondary screening Caspase 3/7 activity (%) ([1]; TGF-β2 5 ng/mL + agent 10 μM, 28 hours, n=5, vs candidate compound non-contacted group)	Caspase 3/7 activity/Viable cell number (%) ([1]; secondary screening Caspase 3/7 activity divided by cell viability)
CC(=O)Oc1ccccc1C(=O)Nc1ncc([N+](=O)[O-])s1 [Nitazoxanide]	49.3	36.5	43.3	x (less than 90% cell viability)	87.81			
COc1cc(NC(C)CCCN)c2ncccc2c1 (stereo not shown) [Primaquine Phosphate]				∘ (90% or more cell viability)	99.7			
Cc1[nH]c(=O)c(C#N)cc1-c1ccncc1 [Milrinone]	95.2	62.5	94.9	∘ (90% or more cell viability)	99.67			
CN1CC2c3ccccc3Oc3ccc(Cl)cc3C2C1 (stereo not shown) [Asenapine Maleate]	87.4	72.8	88.8	∘ (90% or more cell viability)	101.64			
COc1c(C)c2c(c(O)c1C/C=C(\C)CCC(=O)OCCN1CCOCC1)C(=O)OC2 [Mycophenolate Mofetil]	70.4	46.4	47.6	x (less than 90% cell viability)	67.7			
N#Cc1ccc(C(c2ccc(C#N)cc2)n2cncn2)cc1 [Letrozole]	102	71.2	104	∘ (90% or more cell viability)	101.3			
CN(C)[C@@H]1C(O)=C(C(N)=O)C(=O)[C@@]2(O)C(O)=C3C(=O)c4c(O)cccc4[C@@](C)(O)[C@H]3C[C@@H]12 [Tetracycline]	94.3	60.1	93.7	∘ (90% or more cell viability)	99.31			
O=C(O)c1ccc(-n2nc(-c3ccccc3O)nc2-c2ccccc2O)cc1 [Deferasirox]	68.9	50	38.6	x (less than 90% cell viability)	56.04			
CC[C@@H]1/C=C(\C)C[C@H](C)C[C@H](OC)[C@H]2O[C@@](O)(C(=O)C(=O)N3CCCC[C@H]3C(=O)O[C@H](/C(C)=C/[C@@H]3CC[C@H](Cl)[C@H](OC)C3)[C@H](C)[C@@H](O)CC1=O)[C@H](C)C[C@@H]2OC [Pimecrolimus]	62.6	70.1	53	x (less than 90% cell viability)	84.64			
CCCC(=O)Nc1ccc(OCC(O)CNC(C)C)c(C(C)=O)c1.Cl (stereo not shown) [Acebutolol•HCl]				∘ (90% or more cell viability)	99.77	74.30	88.05	88.25
COc1ccccc1OCCNCC(O)COc1cccc2[nH]c3ccccc3c12 (stereo not shown) [Carvedilol]	71.9	50.3	64.1	x (less than 90% cell viability)	89.1			
